Consider 16 molecules from ChEMBL document CHEMBL4190278, “Multipotent AChE and BACE-1 inhibitors for the treatment of Alzheimer's disease: Design, synthesis and bio-analysis of 7-amino-1,4-dihydro-2H-isoquilin-3-one derivates” (Eur J Med Chem, 2017).

Calls of active or inactive are those of the source. The rule behind the calls is not given here.

T1 sequence (P22303 whole entry): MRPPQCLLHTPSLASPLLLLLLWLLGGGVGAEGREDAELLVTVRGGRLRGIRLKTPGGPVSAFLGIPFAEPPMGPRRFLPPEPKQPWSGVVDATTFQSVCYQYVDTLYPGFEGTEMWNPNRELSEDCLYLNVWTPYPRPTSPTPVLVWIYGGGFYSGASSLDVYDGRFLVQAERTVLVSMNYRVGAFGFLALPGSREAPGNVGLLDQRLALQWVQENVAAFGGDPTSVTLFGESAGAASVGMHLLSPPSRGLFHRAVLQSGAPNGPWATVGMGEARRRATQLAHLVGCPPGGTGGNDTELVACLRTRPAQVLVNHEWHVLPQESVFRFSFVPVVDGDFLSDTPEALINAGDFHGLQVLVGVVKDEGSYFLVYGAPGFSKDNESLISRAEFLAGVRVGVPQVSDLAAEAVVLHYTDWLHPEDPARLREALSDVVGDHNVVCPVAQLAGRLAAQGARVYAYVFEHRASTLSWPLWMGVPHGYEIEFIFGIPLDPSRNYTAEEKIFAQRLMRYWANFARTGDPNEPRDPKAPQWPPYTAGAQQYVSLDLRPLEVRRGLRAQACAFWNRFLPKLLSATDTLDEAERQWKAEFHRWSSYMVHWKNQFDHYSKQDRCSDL

One test addresses T1, Acetylcholinesterase (Homo sapiens, UniProt P22303). Kind of test: Inhibition of human AChE using acetylthiocholine as substrate by Ellman's method.
One may read the IC50 as the concentration that gives 50% inhibition. `Cc1cccc(C(=O)Nc2ccc3c(c2)CN(C(=O)c2cccc(Cl)c2)C(=O)C3)c1` registered a half-inhibitory concentration (IC50) of 0.0209 nM.
The same measure, in the same setting: for `O=C(Nc1ccc2c(c1)CN(C(=O)c1ccccc1)C(=O)C2)c1ccccc1` the value was 0.51 nM; for `COc1ccccc1C(=O)Nc1ccc2c(c1)CNC(=O)C2`, 926 nM.
On the same count and under the same terms, for `Cc1cccc(C(=O)Nc2ccc3c(c2)CNC(=O)C3)c1` the value was 791 nM; for `COc1ccccc1C(=O)N1Cc2cc(NC(=O)c3ccccc3)ccc2CC1=O`, 0.0189 nM.
The same measure, in the same setting: in the case of `Cc1cccc(C(=O)N2Cc3cc(NC(=O)c4cccc(Cl)c4)ccc3CC2=O)c1` it was 0.0144 nM; in that of `O=C(Nc1ccc2c(c1)CN(C(=O)c1cccc(Cl)c1)C(=O)C2)c1ccccc1`, 0.0284 nM.
`O=C1Cc2ccc(NC(=O)c3ccccc3)cc2CN1` returned a half-inhibitory concentration (IC50) of 1320 nM.
In the case of `COc1ccccc1C(=O)Nc1ccc2c(c1)CN(C(=O)c1ccccc1OC)C(=O)C2`, the half-maximal inhibitory concentration (IC50) is 0.0216 nM.
Still for that read-out and setting: in the case of `Cc1cccc(C(=O)N2Cc3cc(NC(=O)c4ccccc4)ccc3CC2=O)c1` it was 0.0262 nM; in that of `COc1ccccc1C(=O)Nc1ccc2c(c1)CN(C(=O)c1cccc(C)c1)C(=O)C2`, 0.0259 nM; in that of `O=C1Cc2ccc(NC(=O)c3cccc(Cl)c3)cc2CN1`, 914 nM.
Consider `Nc1ccc2c(c1)CNC(=O)C2`, for which half-maximal inhibition (IC50) was put at 1360 nM.
On the same count and under the same terms, for `Cc1cccc(C(=O)Nc2ccc3c(c2)CN(C(=O)c2cccc(C)c2)C(=O)C3)c1` the value was 0.0135 nM; for `O=C(Nc1ccc2c(c1)CN(C(=O)c1cccc(Cl)c1)C(=O)C2)c1cccc(Cl)c1`, 0.0142 nM.

The target in a further test is T1, Acetylcholinesterase. The test is described as follows: Potency index, ratio of donepezil IC50 to compound IC50 for human AChE.
Take `COc1ccccc1C(=O)N1Cc2cc(NC(=O)c3cccc(Cl)c3)ccc2CC1=O`: the Ratio IC50 stood at 315.
Same read-out and setting: in the case of `COc1ccccc1C(=O)N1Cc2cc(NC(=O)c3ccccc3)ccc2CC1=O` it was 181.

Tested on in a further test: not listed separately
The test is described as follows: Metal chelating activity assessed as Cu2+-compound complex formation at 35 uM by UV-Visible spectrophotometric method.
For the molecule `COc1ccccc1C(=O)N1Cc2cc(NC(=O)c3ccccc3)ccc2CC1=O`, the result was Active.
